Data: EP0383919A1, “STAUROSPORIN DERIVATIVES” (KYOWA HAKKO KOGYO CO., LTD., priority 1988, dated 1989)
Converted amounts (≈) assume the structure as drawn. Where two headings read alike, the source gives them in different places.

Columns and labels:
Protein kinase A = molecular target: T1, Protein kinase A (Bos taurus, UniProt P00517); experiment: biochemical; conditions: crude enzyme partially purified from the calf heart, histone type IIS, c-AMP
T1 construct: a crude enzyme (partially purified from the calf heart by the method of Kuo et al.); from tissue; host or cells: calf heart
Procedure: (2) Protein kinase A inhibition assay:
Then, the same procedure as the above-described protein kinase C inhibition assay is carried out to calculate IC50.

HeLa S3 cells = experiment: HeLa S3 cell growth inhibition assay; type: cell-based; conditions: for IC50: Homo sapiens, HeLa S3, 72 h, read-out: IC50 HeLa S3
Procedure: (1) HeLa S3 cell growth inhibition assay:
A suspension of HeLa S3 cells (3 x 10^4 cells/ml) in MEM containing 10% fetal serum and 2 mM glutamine is distributed in 0.1 ml portions into the wells of a 96-well microtiter plate and incubated overnight in a C02 incubator at 37°C. Then, 0.05 ml portions of an appropriately diluted solution of the test compound are added. The cells are further cultured in the C02 incubator and the culture supernatant is discarded. After washing with PBS (-) once, 0.1 ml portions of fresh medium are added to the wells and the incubation is continued in the C02 incubator at 37°C for 72 hours. After the culture supernatant is discarded, 0.1 ml portions of culture medium containing 0.02% neutral red are added to the respective wells and the microtiter plate is incubated in the C02 incubator at 37°C for 1 hour to stain the cells. After removal of the culture supernatant, the plate is washed with physiological saline once and the dye is extracted with 0.001 N HC1/30% ethanol. Then, using a microplate reader, the absorbances at 550 nm are measured.

CoLo 320DM cells = experiment: CoLo 320DM cell growth inhibition assay; type: cell-based; conditions: Homo sapiens, read-out: IC50 CoLo 320DM
Procedure: (2) CoLo 320DM cell growth inhibition assay:
Then, the same procedure as (1) is followed and the counting of cells is carried out with a microcell counter.

[1] = read-out: IC50 Protein kinase A (converted)
[2] = 50% growth inhibition concentration, neutral red staining, absorbance at 550 nm, 72 hours incubation after washing
[3] = 50% cell growth inhibition concentration, cell counting with a microcell counter

Row | SMILES | IC50 (Protein kinase A; [1]) | IC50 (HeLa S3 cells; [2]) | other results
1 | COC1C(N(C)C(C)=O)CC2OC1(C)n1c3ccccc3c3c4c(c5c6ccccc6n2c5c31)C(=O)NC4 (stereo not drawn) | 0.059 µM |  | 
2 | CNC1CC2OC(C)(C1OC)n1c3ccccc3c3c4c(c5c6ccccc6n2c5c31)C(=O)NC4OC (single isomer, unassigned) [Compound 16] | 0.383 µM |  | IC50 HeLa S3 (HeLa S3 cells; [2]): 0.20 µg/mL (≈ 0.403 µM)
3 | CNC1CC2OC(C)(C1OC)n1c3ccccc3c3c4c(c5c6ccccc6n2c5c31)C(=O)NC4OC (single isomer, unassigned) [Compound 17] | 0.242 µM | 0.16 µg/mL (≈ 0.322 µM) | 
4 | COC1C(N(C)C=O)CC2OC1(C)n1c3ccccc3c3c4c(c5c6ccccc6n2c5c31)C(=O)NC4 (stereo not drawn) [Compound 3] | 20.2 µM |  | 
5 | CNC1CC2OC(C)(C1OC)n1c3ccccc3c3c4c(c5c6ccccc6n2c5c31)C(=O)N(C=O)C4 (stereo not drawn) [Compound 4] |  | 0.18 µg/mL (≈ 0.364 µM) | IC50 (CoLo 320DM cells; [3]): 0.19 µg/mL (≈ 0.384 µM)
6 | CNC1CC2OC(C)(C1OC)n1c3ccccc3c3c4c(c5c6ccccc6n2c5c31)C(=O)N(N)C4=O (stereo not drawn) [Compound 5] |  |  | IC50 (HeLa S3 cells): 0.75 µg/mL (≈ 1.51 µM); IC50 (CoLo 320DM cells): 0.59 µg/mL (≈ 1.19 µM)
7 | COC1C(N(C)C(=O)CN)CC2OC1(C)n1c3ccccc3c3c4c(c5c6ccccc6n2c5c31)C(=O)NC4 (stereo not drawn) [Compound 10] |  | 0.051 µg/mL (≈ 0.0974 µM) | IC50 (CoLo 320DM cells; [3]): 0.55 µg/mL (≈ 1.05 µM)
8 | CNC1CC2OC(C)(C1OC)n1c3ccccc3c3c4c(c5c6ccccc6n2c5c31)C(=O)NC4OC (stereo not drawn) [Compound 11] | 0.322 µM | 0.17 µg/mL (≈ 0.342 µM) | IC50 (CoLo 320DM cells; [3]): 0.14 µg/mL (≈ 0.282 µM)
9 | COC1C(N(C)C(C)=O)CC2OC1(C)n1c3ccccc3c3c4c(c5c6ccccc6n2c5c31)C(=O)NC4=O (stereo not drawn) [Compound 13] | 0.0689 µM |  | 
10 | CNC1CC2OC(C)(C1OC)n1c3ccccc3c3c4c(c5c6ccccc6n2c5c31)C(=O)N(C)C4=O (stereo not drawn) [Compound 14] |  |  | IC50 (HeLa S3 cells): 0.78 µg/mL (≈ 1.58 µM); IC50 (CoLo 320DM cells): > 1 µg/mL
11 | CNC1CC2OC(C)(C1OC)n1c3ccccc3c3c4c(c5c6ccccc6n2c5c31)C(=O)NC4=O (stereo not drawn) [Compound 15] |  |  | IC50 (Protein kinase A; IC50 Protein kinase A): 0.0271 µM
12 | CNC1CC2OC(C)(C1OC)n1c3ccccc3c3c4c(c5c6ccccc6n2c5c31)C(=O)NC4OC(C)C (stereo not drawn) [Compound 18] |  | 0.29 µg/mL (≈ 0.553 µM) | 
13 | CCCCOC1NC(=O)c2c1c1c3ccccc3n3c1c1c2c2ccccc2n1C1CC(NC)C(OC)C3(C)O1 (stereo not drawn) [Compound 19] |  |  | IC50 (HeLa S3 cells): 0.32 µg/mL (≈ 0.594 µM)
14 | CCOC1NC(=O)c2c1c1c3ccccc3n3c1c1c2c2ccccc2n1C1CC(NC)C(OC)C3(C)O1 (stereo not drawn) [Compound 20] |  | 0.29 µg/mL (≈ 0.568 µM) | 
15 | CN[C@@H]1C[C@H]2O[C@@](C)([C@@H]1OC)n1c3ccccc3c3c4c(c5c6ccccc6n2c5c31)C(=O)N[C@@H]4O [UCN-01, reference compound] |  |  | IC50 (HeLa S3 cells): 0.17 µg/mL (≈ 0.352 µM); IC50 (Protein kinase A; IC50 Protein kinase A): 0.0414 µM
